Laboratory results taken from ChEMBL document CHEMBL5241060, “Glycorandomization: A promising diversification strategy for the drug development” (Eur J Med Chem, 2021).
In brackets after ≈: the same amount, converted by molar mass.

How the values were obtained:
MDA-MB-231 = assay: Inhibition of cell migration in human MDA-MB-231 cells; type: functional, cell-based
Escherichia coli [1] = assay: Antibacterial activity against tetracycline resistant Escherichia coli; type: functional
Escherichia coli [2] = assay: Antibacterial activity against tetracycline resistant Escherichia coli 1-849; type: functional

Row | SMILES | MIC (Escherichia coli [1]) | also measured
1 | CCCCCCCCCCCCCC(=O)NCCNC(=O)C(C)(C)C(=O)NCCO[C@@H]1O[C@H](COC(C)=O)[C@@H](O[C@@H]2O[C@H](COC(C)=O)[C@H](OC(C)=O)[C@H](OC(C)=O)[C@H]2OC(C)=O)[C@H](OC(C)=O)[C@H]1OC(C)=O |  | IC50 (MDA-MB-231): > 50 µM
2 | C[C@H]1O[C@@H](O[C@@H]2[C@@H](O)[C@H](N)C[C@H](N)[C@H]2O[C@H]2O[C@H](CN)[C@@H](O)[C@H](O)[C@H]2N)[C@H](O)[C@@H](O)[C@@H]1N | 9 µM (≈ 4.21 µg/mL) | 
3 | CON(CC(=O)Nc1ccc2c(c1O)C(=O)C1=C(O)[C@]3(O)C(=O)C(C(N)=O)=C(O)[C@@H](N(C)C)[C@@H]3[C@@H](O)[C@@H]1[C@H]2C)[C@H]1O[C@H](CO)[C@@H](O)[C@H](O)[C@H]1N |  | MIC (Escherichia coli [2]): 4 µg/mL (≈ 5.65 µM)
4 | C[C@H]1O[C@@H](O[C@@H]2[C@@H](O)[C@H](N)C[C@H](N)[C@H]2O[C@H]2O[C@H](CN)[C@@H](O)[C@H](O)[C@H]2N)[C@H](O)[C@@H](O)[C@H]1N | 9 µM (≈ 4.21 µg/mL) | 
5 | NC[C@@H]1O[C@H](O[C@H]2[C@@H](O)[C@H](O[C@@H]3[C@@H](O)[C@H](N)C[C@H](N)[C@H]3O[C@H]3O[C@H](CN)[C@@H](O)[C@H](O)[C@H]3N)O[C@@H]2CO)[C@H](N)[C@@H](O)[C@@H]1O [FRAMYCETIN] | 2 µM (≈ 1.23 µg/mL) | 
